The test system of the first experiment is grammpositive und grammnegative Kokken. Description: in vitro antibacterial activity against cocci. It is filed as cell-based. Particulars: at the lowest tested concentration (0,01 mcg/ml). The source says: (§1) Diese neuen Verbindungen zeichnen sich durch ihre wertvollen pharmakologischen Eigenschaften aus: so besitzen sie gemäss den Resultaten in vitro antibiotische, insbesondere antibakterielle Eigenschaften, wie z.B. einerseits gegen grammpositive und grammnegative Kokken, wie Staphylococcus aureus, Streptococcus pyogenes, Streptococcus pneumoniae, Neisseria meningitis, Neisseria gonorhoae (im getesteten Konzentrationsbereich 0,01 bis 8 mcg/ml), andererseits gegen grammnegative Stäbchenbakterien, wie Enterobacteriaceae, Pseudomonas aeruginosa, Haemophilus influenzae (im getesteten Konzentrationsbereich von 0,01 bis […]).
Regarding `COC1C=COC2(C)Oc3c(C)c(O)c4c(c3C2=O)C(=O)C(OC(C)=O)=C(NC(=O)C(C)=CC=CC(C)C(O)C(C)C(O)C(C)C(OC(C)=O)C1C)C4=O` (stereo not shown) [3-Acetoxyrifamycin-S], the Hemmwirkung result is listed as “deutliche Hemmwirkung”.

In the case of `COC1C=COC2(C)Oc3c(C)c(O)c4c(c3C2=O)C(=O)C(Oc2ccccc2)=C(NC(=O)C(C)=CC=CC(C)C(O)C(C)C(O)C(C)C(OC(C)=O)C1C)C4=O` (stereo not shown) [3-Phenoxyrifamycin-S], the Hemmwirkung entry is recorded as “deutliche Hemmwirkung”.

As to “3-(2-Methoxyäthoxy)-rifamycin-S [3-(2-Methoxyäthyl)-rifamycin-S]”, the Hemmwirkung entry is “deutliche Hemmwirkung”.

Regarding “3-Benzoyloxyrifamycin-S [3-Benzoylrifamycin-S]”, the Hemmwirkung entry is “deutliche Hemmwirkung”.

Take `COC1=C2NC(=O)C(C)=CC=CC(C)C(O)C(C)C(O)C(C)C(OC(C)=O)C(C)C(OC)C=COC3(C)Oc4c(C)c(O)c(c(c4C3=O)C1=O)C2=O` (stereo not shown) [3-Methoxyrifamycin-S]: the Hemmwirkung result was “deutliche Hemmwirkung”.

Another experiment concerns grammnegative Stäbchenbakterien. Briefly: in vitro antibacterial activity against gram-negative rod bacteria. As to conditions: at the lowest tested concentration (0,01 mg/ml). The experiment is classed as cell-based.
From the text: as §1
`COC1C=COC2(C)Oc3c(C)c(O)c4c(c3C2=O)C(=O)C(OC(C)=O)=C(NC(=O)C(C)=CC=CC(C)C(O)C(C)C(O)C(C)C(OC(C)=O)C1C)C4=O` (stereo not shown) [3-Acetoxyrifamycin-S]: the Hemmwirkung entry is “deutliche Hemmwirkung”.

With `COC1C=COC2(C)Oc3c(C)c(O)c4c(c3C2=O)C(=O)C(Oc2ccccc2)=C(NC(=O)C(C)=CC=CC(C)C(O)C(C)C(O)C(C)C(OC(C)=O)C1C)C4=O` (stereo not shown) [3-Phenoxyrifamycin-S], the Hemmwirkung entry is on record as “deutliche Hemmwirkung”.

Turning to “3-(2-Methoxyäthoxy)-rifamycin-S [3-(2-Methoxyäthyl)-rifamycin-S]”, the Hemmwirkung entry is listed as “deutliche Hemmwirkung”.

With “3-Benzoyloxyrifamycin-S [3-Benzoylrifamycin-S]”, the Hemmwirkung entry was “deutliche Hemmwirkung”.

For `COC1=C2NC(=O)C(C)=CC=CC(C)C(O)C(C)C(O)C(C)C(OC(C)=O)C(C)C(OC)C=COC3(C)Oc4c(C)c(O)c(c(c4C3=O)C1=O)C2=O` (stereo not shown) [3-Methoxyrifamycin-S], the Hemmwirkung entry is reported as “deutliche Hemmwirkung”.

These data come from patent EP0023885A1, “Method for the introduction of an oxygen-containing functional group into ansamycines, compounds thus obtained, and pharmaceutical compositions containing them” (CIBA-GEIGY AG, priority 1979, dated 1981).
